Experimental data published in paper PMC12920294, “Optimizing uPAR-targeting radiopeptides for improved tissue distribution: progress towards radionuclide therapy” (European Journal of Nuclear Medicine and Molecular Imaging, 2025).
Where two headings read alike, the source gives them in different places.

Key:
mouse serum albumin = target: T1, mouse serum albumin (Mus musculus, UniProt P07724); assay type: in vitro ADME
T1 construct: tissue Rockland Immunochemicals Inc., USA Lot: 32321; host or cells: mouse blood plasma
T1 sequence (P07724 25-608): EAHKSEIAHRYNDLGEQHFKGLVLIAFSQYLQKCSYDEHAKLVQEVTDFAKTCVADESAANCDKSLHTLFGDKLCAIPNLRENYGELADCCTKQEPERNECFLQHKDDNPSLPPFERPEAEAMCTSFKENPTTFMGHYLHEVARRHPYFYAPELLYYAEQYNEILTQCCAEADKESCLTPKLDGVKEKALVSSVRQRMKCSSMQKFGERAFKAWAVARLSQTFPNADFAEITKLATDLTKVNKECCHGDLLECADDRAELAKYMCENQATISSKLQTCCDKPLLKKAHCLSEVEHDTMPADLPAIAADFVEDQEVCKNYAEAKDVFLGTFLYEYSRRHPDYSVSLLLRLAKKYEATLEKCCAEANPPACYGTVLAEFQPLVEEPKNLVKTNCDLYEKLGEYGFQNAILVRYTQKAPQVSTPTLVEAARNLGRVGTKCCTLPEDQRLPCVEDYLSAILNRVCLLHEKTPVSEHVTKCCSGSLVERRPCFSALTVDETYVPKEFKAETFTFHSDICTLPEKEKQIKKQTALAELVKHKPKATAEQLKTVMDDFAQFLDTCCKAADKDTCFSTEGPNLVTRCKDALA
Procedure: (§1) The albumin-binding properties of the radiopeptides in mouse and human blood plasma were determined using an ultrafiltration assay with Amicon centrifugal filters (cut-off of 10 kDa; Merck Millipore) as previously reported (Supplementary Material). A fixed amount of the respective radiopeptide (~ 300 kBq, 15 µL, 6 pmol) was added to a defined volume (150 µL) of mouse and human blood plasma dilutions to obtain [mouse serum albumin]-to-[radiopeptide] molar concentration ratios of 0.01‒12,500 and [human serum albumin]-to-[radiopeptide] molar concentration ratios of 0.01‒20,000. The data were analyzed using a semi-logarithmic Hill plot with the maximum binding set as 100% using GraphPad Prism software (version 10.1.1). The half-maximum binding (B50 values) of each radiopeptide was expressed as relative values using the inverse ratios with the value of [^177Lu]Lu-uPAR-11 set as 1.0. […] The samples were incubated at 37 °C for 30 min. Ice-cold PBS (150 µL, pH 7.4) was added before loading the blood plasma samples on Amicon centrifugal filters (cut-off of 10 kDa; Merck Millipore) followed by centrifugation (14000 rcf, 4 °C, 30 min) to allow the separation of the plasma protein-bound from the unbound (free) fractions of each sample. The inserts of the filter devices were inverted and centrifuged at 200 rcf for 3 min to recover the protein-bound radiopeptide. The activity of the protein-bound fraction was measured using a γ-counter (Wallac Wizard 1480, PerkinElmer). The activity in the filtrate and filter unit was counted in the γ-counter and the counts were combined, assuming that the fraction retained in the filter membrane was not bound to proteins. The protein-bound fraction was expressed as percentage of the whole activity (i.e. plasma protein-bound activity, activity measured in the filtrate and activity measured in the filter (set as 100%)). The data were analyzed using a semi-logarithmic plot assuming a maximum binding of 100%. The Hill equation was fitted to the data points, and the half-maximum binding (B50) was determined based on the obtained binding curves using GraphPad Prism software (version 10.1.1). To quantitatively express and compare the albumin-binding properties of the radiopeptides, the relative albumin-binding affinity was expressed as the inverse half-maximal-binding (B50) of the respective radioligand to that of [^177Lu]Lu-uPAR-11, which was set as 1.0. The results were presented as the value obtained from the average curve from 3 independent experiments.

human serum albumin = human serum albumin (Homo sapiens, UniProt P02768); assay type: in vitro ADME; design: tissue Stiftung Blutspende SRK Aargau-Solothurn, Switzerland; host or cells: human blood plasma
Chain of human serum albumin (P02768 25-609): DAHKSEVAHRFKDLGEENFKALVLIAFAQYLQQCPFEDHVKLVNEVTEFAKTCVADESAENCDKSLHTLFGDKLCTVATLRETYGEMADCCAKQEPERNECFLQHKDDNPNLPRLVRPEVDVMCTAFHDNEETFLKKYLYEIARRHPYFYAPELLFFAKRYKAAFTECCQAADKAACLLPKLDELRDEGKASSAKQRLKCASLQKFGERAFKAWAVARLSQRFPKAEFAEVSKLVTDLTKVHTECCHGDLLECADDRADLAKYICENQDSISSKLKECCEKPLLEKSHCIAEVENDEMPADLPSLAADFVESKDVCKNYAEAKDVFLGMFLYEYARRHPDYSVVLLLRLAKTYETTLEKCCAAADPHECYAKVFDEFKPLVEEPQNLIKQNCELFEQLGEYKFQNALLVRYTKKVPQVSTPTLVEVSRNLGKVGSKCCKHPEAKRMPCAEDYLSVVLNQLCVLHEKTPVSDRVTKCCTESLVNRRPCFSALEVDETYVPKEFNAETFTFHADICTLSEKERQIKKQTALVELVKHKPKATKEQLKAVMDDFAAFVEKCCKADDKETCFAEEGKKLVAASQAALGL
Procedure: as §1

in vivo = settings: CD1 nude, mouse, 0.5 nmol/mouse, total radioactivity
[1] = assay type: in vitro ADME; settings: 1 µM
Procedure: The ^177Lu-labeled peptides (50 MBq/nmol) were incubated in mouse or human blood plasma (10 MBq/200 µL) over an incubation period of 24 h at 37 °C. Aliquots and control samples of the radiopeptides diluted in saline were analyzed after 1 h, 4 h and 24 h using thin layer chromatography (TLC) as previously reported (Supplementary Material). The distribution coefficients (logD values) of the ^177Lu-labeled peptides (50 MBq/nmol) were determined using a shake-flask method according to a previously published procedure (Supplementary Material).
Methods: A sample of each radiopeptide (50 MBq/nmol) was added to mouse blood plasma (Lot: 32321, Rockland Immunochemicals Inc., USA) or to human blood plasma (Stiftung Blutspende SRK Aargau-Solothurn, Switzerland) to obtain an activity concentration of 10 MBq/200 µL. The test samples were incubated at 37 °C for up to 24 h. Control samples referred to the radiopeptides which were instead diluted in saline at an activity concentration of 10 MBq/200 µL. Aliquots of each sample (2 µL, ~100 kBq) were taken after 1 h, 4 h and 24 h and investigated by means of thin layer chromatography (TLC). The employed method involved reversed-phase TLC plates (MERCK Analytical Chromatography, TLC Silica gel 60 RP-18 F254s) as stationary phase and ACN/citrate buffer (3:7; v/v; pH 5.5) as mobile phase. After the eluent reached the front line, the TLC plates were dried and exposed to a phosphor screen (Super resolution screen PSR10450013, PerkinElmer) for 1 min. The respective screen was developed using a storage phosphor system (Cyclone Plus, PerkinElmer) and analyzed using the OptiQuant Software (version 5.0, Bright Instrument Co Ltd., PerkinElmer).

Albumin-binding affinity relative to [177Lu]Lu-uPAR-11 (mouse serum albumin) | Albumin-binding properties, relative values (inverse B50 ratio) (mouse serum albumin) | Inverse relative albumin-binding affinity (human serum albumin) | tissue uptake at 4 h (in vivo; Blood uptake) [%ID/g] | tissue uptake at 24 h (in vivo; Blood uptake) [%ID/g] | tissue uptake at 4 h (in vivo; Bone uptake) [%ID/g] | tissue uptake at 24 h (in vivo; Bone uptake) [%ID/g] | tissue uptake at 4 h (in vivo; Brain uptake) [%ID/g] | tissue uptake at 24 h (in vivo; Brain uptake) [%ID/g] | tissue uptake at 4 h (in vivo; HEK-uPAR xenograft uptake) [%ID/g] | tissue uptake at 24 h (in vivo; HEK-uPAR xenograft uptake) [%ID/g] | tissue uptake at 4 h (in vivo; Heart uptake) [%ID/g] | tissue uptake at 24 h (in vivo; Heart uptake) [%ID/g] | tissue uptake at 4 h (in vivo; Intestines uptake) [%ID/g] | tissue uptake at 24 h (in vivo; Intestines uptake) [%ID/g] | tissue uptake at 4 h (in vivo; Kidneys uptake) [%ID/g] | tissue uptake at 24 h (in vivo; Kidneys uptake) [%ID/g] | tissue uptake at 4 h (in vivo; Liver uptake) [%ID/g] | tissue uptake at 24 h (in vivo; Liver uptake) [%ID/g] | tissue uptake at 4 h (in vivo; Lung uptake) [%ID/g] | further results | SMILES
0.50‒0.77 | 0.66 | 0.50 | 4.5 ± 0.2 | 0.06 ± 0.01 | 0.66 ± 0.09 | 0.19 ± 0.03 | 0.1 ± 0.01 | < 0.03 | 9 ± 0.5 | 3.4 ± 0.3 | 1.7 ± 0.1 | 0.15 ± 0.01 | 0.81 ± 0.04 | 0.21 ± 0.03 | 4 ± 0.3 | 2 ± 0.3 | 2 ± 0.2 | 0.47 ± 0.05 | 3 ± 0.6 | tissue uptake at 24 h (in vivo; Lung uptake): 0.3 ± 0.02 %ID/g; tissue uptake at 4 h (in vivo; Muscle uptake): 0.51 ± 0.02 %ID/g; tissue uptake at 24 h (in vivo; Muscle uptake): 0.05 ± 0.01 %ID/g; tissue uptake at 4 h (in vivo; Pancreas uptake): 0.68 ± 0.03 %ID/g; tissue uptake at 24 h (in vivo; Pancreas uptake): 0.12 ± 0.01 %ID/g; tissue uptake at 4 h (in vivo; Salivary glands uptake): 1.1 ± 0.1 %ID/g; tissue uptake at 24 h (in vivo; Salivary glands uptake): 0.26 ± 0.03 %ID/g; tissue uptake at 4 h (in vivo; Spleen uptake): 0.99 ± 0.08 %ID/g; tissue uptake at 24 h (in vivo; Spleen uptake): 0.54 ± 0.11 %ID/g; tissue uptake at 4 h (in vivo; Stomach uptake): 0.69 ± 0.13 %ID/g; tissue uptake at 24 h (in vivo; Stomach uptake): 0.16 ± 0.03 %ID/g; Human blood plasma stability, intact radiopeptide ([1]; 1 h): 100 ± 1%; Mouse blood plasma stability, intact radiopeptide ([1]; 1 h): 100 ± 1%; Human blood plasma stability, intact radiopeptide ([1]; 4 h): 100 ± 1%; Mouse blood plasma stability, intact radiopeptide ([1]; 4 h): 97 ± 4%; Human blood plasma stability, intact radiopeptide ([1]; 24 h): 97 ± 2%; Mouse blood plasma stability, intact radiopeptide ([1]; 24 h): 99 ± 2% | Cc1ccc(CCCC(=O)NCCOCCOCCOCCOCCC(=O)NC[C@H](NC(=O)CN2CCN(CC(=O)O)CCN(CC(=O)O)CCN(CC(=O)O)CC2)C(=O)N[C@@H](CC(=O)O)C(=O)N[C@@H](CC2CCCCC2)C(=O)N[C@@H](Cc2ccccc2)C(=O)N[C@H](CO)C(=O)N[C@H](CCCNC(=N)N)C(=O)N[C@@H](Cc2ccc(O)cc2)C(=O)N[C@@H](CC(C)C)C(=O)N[C@@H](Cc2c[nH]c3ccccc23)C(=O)N[C@@H](CO)C(N)=O)cc1 [[^177Lu]Lu-uPAR-14, metal not drawn]
0.50‒0.77 | 0.77 | 0.65 | 6 ± 1.3 | < 0.03 | 0.82 ± 0.1 | 0.06 ± 0.01 | 0.13 ± 0.04 | < 0.03 | 8 ± 0.7 | 2.1 ± 0.5 | 2.2 ± 0.4 | 0.07 ± 0.01 | 0.87 ± 0.18 | 0.05 ± 0.01 | 4.6 ± 0.3 | 1.3 to 1.7 | 1.7 ± 0.2 | 0.21 ± 0.03 | 3 ± 0.7 | tissue uptake at 24 h (in vivo; Lung uptake): 0.12 ± 0.02 %ID/g; tissue uptake at 4 h (in vivo; Muscle uptake): 0.57 ± 0.1 %ID/g; tissue uptake at 24 h (in vivo; Muscle uptake): < 0.03 %ID/g; tissue uptake at 4 h (in vivo; Pancreas uptake): 0.82 ± 0.17 %ID/g; tissue uptake at 24 h (in vivo; Pancreas uptake): 0.04 ± 0.01 %ID/g; tissue uptake at 4 h (in vivo; Salivary glands uptake): 1.2 ± 0.3 %ID/g; tissue uptake at 24 h (in vivo; Salivary glands uptake): 0.12 ± 0.03 %ID/g; tissue uptake at 4 h (in vivo; Spleen uptake): 1 ± 0.2 %ID/g; tissue uptake at 24 h (in vivo; Spleen uptake): 0.13 ± 0.02 %ID/g; tissue uptake at 4 h (in vivo; Stomach uptake): 0.73 ± 0.29 %ID/g; tissue uptake at 24 h (in vivo; Stomach uptake): 0.05 ± 0.01 %ID/g; Human blood plasma stability, intact radiopeptide ([1]; 1 h): 100 ± 1%; Mouse blood plasma stability, intact radiopeptide ([1]; 1 h): 100 ± 1%; Human blood plasma stability, intact radiopeptide ([1]; 4 h): 99 ± 1%; Mouse blood plasma stability, intact radiopeptide ([1]; 4 h): 97 ± 2%; Human blood plasma stability, intact radiopeptide ([1]; 24 h): 96 ± 1%; Mouse blood plasma stability, intact radiopeptide ([1]; 24 h): 61 ± 9% | Cc1ccc(CCCC(=O)NCCOCCOCCOCCOCCC(=O)NCCCC[C@H](NC(=O)CC[C@H](C(=O)O)N2CCN(CC(=O)O)CCN(CC(=O)O)CCN(CC(=O)O)CC2)C(=O)N[C@@H](CC(=O)O)C(=O)N[C@@H](CC2CCCCC2)C(=O)N[C@@H](Cc2ccccc2)C(=O)N[C@H](CO)C(=O)N[C@H](CCCNC(=N)N)C(=O)N[C@@H](Cc2ccc(O)cc2)C(=O)N[C@@H](CC(C)C)C(=O)N[C@@H](Cc2c[nH]c3ccccc23)C(=O)N[C@@H](CO)C(N)=O)cc1 [[^177Lu]Lu-uPAR-17, metal not drawn]
